# Experimental data from patent US11976069B2, “Inhibitors of histone deacetylase useful for the treatment or prevention of HIV infection” (Merck Sharp & Dohme LLC, priority 2019, dated 2024).
# Like-named read-outs stand apart in the source and are kept apart here.
# Assays:
# Type in all cases: biochemical
# HDAC3/SMRT heterodimer = target: T1, HDAC3/SMRT heterodimer (Homo sapiens, UniProt O15379); assay: HDAC3/SMRT inhibition, modified Fluor-de-Lys assay; settings: 3 h pre-incubation, 0.3 nM enzyme, 20 μM substrate BML-KI104, read-out: HDAC-3 IC50
# T1 construct: FLAG (C)
# T1 sequence (O15379 whole entry): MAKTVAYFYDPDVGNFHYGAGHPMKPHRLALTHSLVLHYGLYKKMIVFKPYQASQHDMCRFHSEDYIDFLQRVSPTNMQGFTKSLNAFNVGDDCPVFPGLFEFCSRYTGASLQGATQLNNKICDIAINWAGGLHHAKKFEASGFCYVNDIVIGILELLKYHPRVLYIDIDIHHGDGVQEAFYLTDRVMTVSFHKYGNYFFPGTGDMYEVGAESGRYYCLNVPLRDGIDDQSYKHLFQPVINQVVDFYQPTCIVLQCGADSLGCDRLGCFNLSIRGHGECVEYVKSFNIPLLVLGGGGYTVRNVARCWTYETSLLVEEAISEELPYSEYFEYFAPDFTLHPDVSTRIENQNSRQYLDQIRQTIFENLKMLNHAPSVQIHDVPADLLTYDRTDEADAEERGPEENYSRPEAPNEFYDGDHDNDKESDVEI
# T1 sequence (Q9Y618 1-899 partner limits assumed): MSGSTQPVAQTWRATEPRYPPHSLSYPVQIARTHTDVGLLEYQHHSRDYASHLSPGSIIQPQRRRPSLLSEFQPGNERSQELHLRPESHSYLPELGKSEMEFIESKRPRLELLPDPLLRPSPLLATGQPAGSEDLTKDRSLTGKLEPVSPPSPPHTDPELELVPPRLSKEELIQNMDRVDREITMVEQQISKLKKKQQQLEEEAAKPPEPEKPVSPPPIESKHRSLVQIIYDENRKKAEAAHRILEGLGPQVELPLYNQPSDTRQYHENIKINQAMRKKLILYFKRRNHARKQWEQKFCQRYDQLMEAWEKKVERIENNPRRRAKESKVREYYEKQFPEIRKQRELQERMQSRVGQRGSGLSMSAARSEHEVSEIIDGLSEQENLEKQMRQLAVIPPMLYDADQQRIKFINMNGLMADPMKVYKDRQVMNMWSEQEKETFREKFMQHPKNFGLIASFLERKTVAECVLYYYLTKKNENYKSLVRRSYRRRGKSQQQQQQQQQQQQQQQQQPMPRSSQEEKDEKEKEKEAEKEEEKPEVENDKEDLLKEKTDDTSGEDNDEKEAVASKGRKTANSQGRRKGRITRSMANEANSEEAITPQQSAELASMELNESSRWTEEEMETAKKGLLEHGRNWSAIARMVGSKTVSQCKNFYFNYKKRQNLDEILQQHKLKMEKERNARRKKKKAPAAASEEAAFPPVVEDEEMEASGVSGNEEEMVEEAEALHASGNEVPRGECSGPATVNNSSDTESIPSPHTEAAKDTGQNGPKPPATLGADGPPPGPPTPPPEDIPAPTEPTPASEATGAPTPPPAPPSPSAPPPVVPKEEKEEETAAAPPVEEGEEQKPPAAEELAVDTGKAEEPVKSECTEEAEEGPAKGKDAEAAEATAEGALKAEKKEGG
# Procedure: (§1) Human HDAC Enzyme Inhibitor FLUOR-DE-LYS Assay Materials
# (§2) Recombinant human HDAC1, HDAC2, and HDAC3/SMRT heterodimer were prepared by Merck Research Laboratories. […] The eluted protein was then passed over an anti-HDAC1 immunoaffinity column to remove any complexes containing HDAC1. […]
# (§3) The histone deacetylase activities of HDAC1, HDAC2, HDAC3, HDAC6, and HDAC8 were measured in modified Fluor-de-Lys assays in 384-well format. In this assay, HDAC enzymes are initially incubated with an ε-acetyl (or -trifluoroacetyl)-L-lysine-containing substrate with a C-terminal amide having aminomethylcoumarin as the amine component. HDACs cleave the ε-acetyl group, rendering the resulting product susceptible to AMC cleavage by trypsin. The released AMC is then detected by its fluorescence.
# (§4) The HDAC 1, 2 assays employed buffer A, which contained 20 mM HEPES, pH 8.0, 1 mM MgCl2, 137 mM NaCl, 2.7 mM KCl, 0.05% BSA. The HDAC3/SMRT assay employed buffer B, consisting of 20 mM HEPES, pH 8.0, 1 mM MgCl2, 50 mM NaCl, 2.7 mM KCl, 0.05% BSA, 0.005% Tween 20, and 10 μM IP4. The HDAC6 assay employed buffer C, consisting of 20 mM HEPES, pH 8.0, 1 mM MgCl2, 137 mM NaCl, 2.7 mM KCl, 0.5 mM TCEP (Calbiochem) and 0.05% BSA. The HDAC8 assay employed buffer D, consisting of 20 mM HEPES, pH 8.0, 1 mM MgCl2, 100 mM NaCl, 20 mM KCl, 0.1% n-octyl-β-D-glucoside (Anatrace, Maumee, Ohio) and 0.05% BSA. All steps were performed at room temperature (23° C.). The assay was performed by pre-incubating serial dilutions of test compounds with the target HDAC prior to initiation with substrate. Each compound was titrated in a 10-point dose response, using a 1:3 fold dilution scheme, with 0.15 ul of solution added by ECHO555 to the plate, followed by the addition of 20 μl of the appropriate HDAC isoform diluted in appropriate assay buffer. […] Final conditions used for each assay were: 1. HDAC 1, 0.3 nM total enzyme, 20 μM substrate BML-KI104; 2. HDAC 2, 1.5 nM total enzyme, 40 μM substrate BML-KI104; 3. HDAC 3/SMRT, 0.3 nM total enzyme, 20 μM substrate BML-KI104; 4. HDAC 6, 1.3 nM total enzyme, 2.5 μM substrate BML-KI104; 5. HDAC 8, 1.3 nM total enzyme, 200 μM substrate BML-KI178; the final high dose of test compound was 30 μM. For potent compounds, 900 nM was used as the final high dose. The reactions were stopped and developed by addition of 30 ul of HDAC developer solution containing a saturating level of HDAC inhibitor as follows: 1.
# HDAC2 = target: T2, HDAC2 (Homo sapiens, UniProt Q92769); assay: HDAC2 inhibition, modified Fluor-de-Lys assay; settings: 3 h pre-incubation, […] enzyme, 40 μM substrate BML-KI104; read-out: HDAC-2 IC50
# T2 construct: Full length human HDAC2-FLAG was expressed in baculovirus infected Sf9 cells; FLAG (C); host or cells: baculovirus infected Sf9 cells
# T2 sequence (Q92769 whole entry): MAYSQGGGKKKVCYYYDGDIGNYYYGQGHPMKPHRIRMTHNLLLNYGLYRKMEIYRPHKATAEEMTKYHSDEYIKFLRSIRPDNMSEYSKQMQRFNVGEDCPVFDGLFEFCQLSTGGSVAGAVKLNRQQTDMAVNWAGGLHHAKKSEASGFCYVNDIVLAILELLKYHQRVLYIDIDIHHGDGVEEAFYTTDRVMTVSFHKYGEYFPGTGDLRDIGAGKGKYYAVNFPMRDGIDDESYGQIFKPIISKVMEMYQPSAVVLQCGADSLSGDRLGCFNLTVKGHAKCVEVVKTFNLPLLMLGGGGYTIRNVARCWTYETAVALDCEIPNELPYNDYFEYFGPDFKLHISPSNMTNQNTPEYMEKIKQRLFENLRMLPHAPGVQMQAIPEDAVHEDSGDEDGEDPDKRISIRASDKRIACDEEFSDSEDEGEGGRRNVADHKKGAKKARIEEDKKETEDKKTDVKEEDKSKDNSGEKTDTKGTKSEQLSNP
# Procedure: as §1, §2, §3, §4
# HDAC1 = target: T3, HDAC1 (Homo sapiens, UniProt Q13547); assay: HDAC1 inhibition, modified Fluor-de-Lys assay; settings: 3 h pre-incubation, 0.3 nM enzyme, 20 μM substrate BML-KI104; read-out: HDAC-1 IC50
# T3 construct: FLAG (C)
# T3 sequence (Q13547 whole entry): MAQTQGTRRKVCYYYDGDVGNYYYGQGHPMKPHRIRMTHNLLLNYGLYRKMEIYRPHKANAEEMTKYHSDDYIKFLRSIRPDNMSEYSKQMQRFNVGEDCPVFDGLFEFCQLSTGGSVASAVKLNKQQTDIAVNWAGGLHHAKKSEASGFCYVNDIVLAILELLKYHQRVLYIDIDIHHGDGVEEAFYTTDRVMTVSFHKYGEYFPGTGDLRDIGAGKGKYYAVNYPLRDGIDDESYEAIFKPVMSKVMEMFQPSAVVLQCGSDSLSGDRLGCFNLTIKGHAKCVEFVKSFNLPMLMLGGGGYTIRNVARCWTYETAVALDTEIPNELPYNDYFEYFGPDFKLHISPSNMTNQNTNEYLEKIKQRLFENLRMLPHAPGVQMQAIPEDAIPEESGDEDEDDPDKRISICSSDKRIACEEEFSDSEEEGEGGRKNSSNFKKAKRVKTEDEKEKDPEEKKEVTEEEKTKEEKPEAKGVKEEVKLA
# Procedure: as §1, §2, §3, §4
# HDAC8 = target: T4, HDAC8 (Homo sapiens, UniProt Q9BY41); assay: HDAC8 inhibition, modified Fluor-de-Lys assay; settings: 3 h pre-incubation, 200 μM substrate BML-KI178, read-out: HDAC-8 IC50
# T4 construct: purchased Enzo Life Sciences (Farmingdale, N.Y.) BMIL-SE145-0100
# T4 sequence (Q9BY41 1-377): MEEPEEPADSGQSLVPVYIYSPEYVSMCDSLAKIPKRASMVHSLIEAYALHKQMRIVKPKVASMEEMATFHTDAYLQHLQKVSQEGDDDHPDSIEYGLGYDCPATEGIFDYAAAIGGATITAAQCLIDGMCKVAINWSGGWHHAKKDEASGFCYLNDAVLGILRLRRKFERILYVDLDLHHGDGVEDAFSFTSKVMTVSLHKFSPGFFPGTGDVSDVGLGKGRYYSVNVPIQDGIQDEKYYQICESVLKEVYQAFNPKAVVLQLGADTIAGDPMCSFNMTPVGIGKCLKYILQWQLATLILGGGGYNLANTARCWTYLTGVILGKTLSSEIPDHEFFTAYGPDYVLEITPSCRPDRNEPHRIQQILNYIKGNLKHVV
# Text: as §1
# Recombinant human HDAC8 (catalog number BMIL-SE145-0100) and HDAC10 (catalog number BML-SE559-0050) enzymes, HIDAC substrates BML-KI104 and BML-K1178, and HLDAC developer solutions BMIL-KI105 and BML-K1176 were purchased from Enzo Life Sciences (Farmingdale, N.Y.). Recombinant human HDAC5 and HDAC11 were purchased from BPS Bioscience (San Diego, Calif.)(catalog numbers 50045 and 50021). Substrate Boc-Lys(TFA)-AMC was obtained from Bachem (Bupendorf, Switzerland) (catalog number 1-1985). HDAC inhibitor suberoylanilide hydroxamic acid (SAHA) was obtained from Indofine (Hillsborough Township, N.J.) and trichostatin A (TSA) was obtained from Sigma-Aldrich (St. Louis, Mo.). […] HEPES pH 8.0 was obtained from Boston BioProducts (Ashland, Mass.), Tween-20 from Fisher Scientific (Hampton, N.H.) (catalog number BP337), TCEP from Calbiochem and 7.5% bovine serum albumin (BSA) from Life Technologies (Carlsbad, Calif.) (catalog number 15260037). 384-well, black assay plates were obtained from Corning (Corning, N.Y.) (catalog number 3575).
# as §3, §4
Compound,IC50 (HDAC3/SMRT heterodimer) [nM],IC50 (HDAC2) [nM],IC50 (HDAC1) [nM],IC50 (HDAC8; […] enzyme) [nM],IC50 (HDAC8; 1.3 nM enzyme) [nM]
"CCC(=O)CCCCC[C@@H]1NC(=O)[C@H]2CC23CCN(CCCCCCCCn2ccc4cc(c(OC)cc4c2=O)-c2cnc1[nH]2)CC3 [Compound 5, (1^1S,4S)-6^7-methoxy-4-(6-oxooctyl)-6^1,6^2-dihydro-5^1H-3-aza-6(6,2)-isoquinolina-15(4,1)-piperidina-5(2,5)-imidazola-1(1,2)-cyclopropanapentadecaphane-6^1,2-dione]",0.13,0.31,0.11,–,–
"CCC(=O)CCCCCC1NC(=O)C2CC2N2CCC(CCCCCn3c(=O)ccc4cc(ccc43)-c3cnc1o3)CC2 [Compound 7, (11S,4S)-4-(6-oxooctyl)-61,62-dihydro-3-aza-5(2,5)-oxazola-6(6,1)-quinolina-12(4,1)-piperidina-1(1,2)-cyclopropanadodecaphane-62,2-dione]",57,260,16,> 900,–
"CCC(=O)CCCCC[C@@H]1NC(=O)[C@H]2CC23CCN(CCCOCCCn2ccc4cc(ccc4c2=O)-c2cnc1[nH]2)CC3 [Compound 12, (3S,6S)-6-(6-oxooctyl)-22-oxa-5,8,18,26,33-pentaazahexacyclo[24.2.2.1˜7,10˜0.1˜11,15˜0.1˜14,18˜0.0˜1,3˜]tritriaconta-7,9,11(32),12,14,16-hexaene-4,31-dione]",0.32,8.5,0.33,808,–
"CCC(=O)CCCCC[C@H](NC(=O)[C@H]1CC12CCN(CC)CC2)c1[nH]c2nc1C(=O)NCCC/C=C\c1cccc-2c1 [Compound 14, (1S)-6-ethyl-N-{(1S)-7-oxo-1-[(11Z)-6-oxo-3,7,18-triazatricyclo[11.3.1.1~2,5~]octadeca-1(17),2(18),4,11,13,15-hexaen-4-yl]nonyl}-6-azaspiro[2.5]octane-1-carboxamide]",113,572,133,–,> 900
"CCC(=O)CCCCC[C@H](NC(=O)[C@H]1CC12CCN(CC)CC2)c1[nH]c2nc1C(=O)NCCC/C=C/c1cccc-2c1 [Compound 15, (1S)-6-ethyl-N-{(1S)-7-oxo-1-[(11E)-6-oxo-3,7,18-triazatricyclo[11.3.1.1~2,5~]octadeca-1(17),2(18),4,11,13,15-hexaen-4-yl]nonyl}-6-azaspiro[2.5]octane-1-carboxamide]",18,223,21,–,> 900
"(11S,4S)-4-(6-oxooctyl)-61,62-dihydro-3-aza-5(2,5)-oxazola-6(6,1)-quinolina-12(4,1)-piperidina-1(1,2)-cyclopropanadodecaphane-62,2-dione [Compound 8]",130,287,42,> 900,–
